# Experimental data published in patent US9370521B2, “Targeting GLI proteins in human cancer by small molecules” (The Regents of the University of California, priority 2011, dated 2016).
# Experiments:
# Wnt signaling pathway = assay: Quantitative real-time RT-PCR of Wnt pathway genes in xenograft tumors; format: in vivo, mouse; conditions: Melanoma tumor xenograft, compared to controls, FIG. 4
# Method: (§1) Total RNA was isolated using Qiagen RNeasy Mini Kit (Valencia, Calif.). Hybridization probes and primers (Table 1) were purchased from Applied Biosystems (ABI, Foster City, Calif.). cDNA synthesis and Taqman® PCR were performed according to the manufactures' protocols. The gene expression was assayed in triplicate in ABI 7300 Real-time PCR System. Samples were normalized to their housekeeping gene GAPDH and then calculated by using 2^−dCt method.
# To examine whether Compounds 1, 2, 4, and 6 suppressed tumor growth through inhibition of the Wnt signaling pathway in vivo, expression of the key components and direct target genes of the Wnt pathway (e.g. Wnt2, Axin2, EGFR, and Cyclin D1) were analyzed by quantitative real-time RT-PCR using total RNA isolated from the xenograft tumors. GAPDH served as a control. This RT-PCR analysis was performed using a “pooled” tumor from two randomly selected mice of each group with reasonable size tumors. […] The results are shown in FIG. 4, where C is control and V is vehicle.
# melanoma MelJuso = assay: In vivo efficacy, Mouse Xenograft Model (melanoma MelJuso); conditions: 50 mg/kg i.p. daily for 14 days, FIG. 1; for Tumor growth after treatment: vs vehicle
# Method: (§2) The administered compounds were tested in vivo in the mouse xenograft model bearing human cancer cells. Briefly, female athymic nude mice strain NCRNU-M (5-10 weeks old, 20-25 grams in weight; Taconic, Germantown, N.Y.) was maintained in pathogen-free conditions. Three human cancer cell lines: NSCLC A549, melanoma MelJuso, and mesothelioma MS-1 were used. Five or ten mice were used in each group and injected s.c. with 3×10^6 cancer cells in the dorsal area in a volume of 100 μl. After inoculation, human cancer cells were allowed to grow in mice for 10-13 days to become visible tumor nodules. Animals were then injected with a compound of the embodiments at a dose of 50 mg/kg body weight (1 mg/mouse per day). Vehicle alone was used as control. The compounds and controls were adjusted in 40 ul volume for i.p. injection in the abdomens of the mice. Injections were performed daily around the same time for 14 days. Tumors were allowed to grow for 1-2 additional weeks after completion of the compound treatments. Tumor size was measured every three to four days, and tumor volumes were calculated using width (x) and length (y) (x^2y/2, where x<y). Throughout this period, general toxicity of the treatments was also monitored by measuring body weight of the mice. Data was presented as mean values (±S.D.).
# In vivo efficacy study of Compounds 1, 2, 4, and 6 were performed using a Mouse Xenograft Model (Melanoma MelJuso). Mice were injected s.c. with 3×10^6 cells in the dorsal area in a volume of 100 μl. 13 days after inoculation, the mice started receiving treatments with the administered compound at a dose of 50 mg/kg body weight daily for 14 days (n=10). Vehicle alone was used as control (n=10). The administered compounds and vehicle were adjusted in a volume of 40 μl for i.p. injection in the abdomens of the mice. Tumor size and tumor volumes were calculated as described above.
# NSCLC A549 = assay: In vivo efficacy, Mouse Xenograft Model (lung cancer A549); conditions: 50 mg/kg i.p. daily for 14 days then another 7 days, tumors weighed day 43, vs control group, FIG. 3
# Method: as §2, with “Tumors were allowed to grow for 1-2 additional weeks after completion of the compound treatments.” left out, “Data was presented as mean values (±S.D.).” left out
# In vivo efficacy study of Compounds 1 and 4 in Mouse Xenograft Model (NSCLC A549) was examined. […] 43 days after the initial tumor inoculation, tumors were dissected from the mice of each group and their weights were measured using a scale. […]
# [1] = Preliminary in vivo toxicity: leukocyte population and body weight after in vivo treatment; design: species or system mouse; conditions: mice; for Changes of leukocyte population: at completion of the in vivo studies, FIG. 5; for Loss of body weight: during the course of drug administration, FIG. 6
# Method: as §2
# (§3) After the in vivo studies were completed, different organs were resected from mice. These organs included liver, lung, heart, kidney, intestines, ovary, brain, spleen, skin, and muscle. The specimens were fixed in 4% buffered formaldehyde, embedded in paraffin, sectioned, and histologically analyzed by hematoxylin and eosin (HE) staining. The HE stained slides were examined by a mouse pathologist for toxicity evidence from all the organs as compared with vehicle controls. In addition, leukocytes (WBC: white blood cell, NE: neutrophil, LY: lymphocyte, MO: monocyte, EO: eosinophil, BA: basophil) from each animal from all treatment groups were collected and leukocyte population was counted through a blood cell counter.
# (§4) As preliminary in vivo toxicity study of Compounds 1, 2, 4, and 6, it was examined if there were changes of leukocyte population and loss of body weight in the mice after the treatment. At the completion of the in vivo studies as described herein, leukocytes (WBC: white blood cell, NE: neutrophil, LY: lymphocyte, MO: monocyte, EO: eosinophil, BA: basophil) from each animal from all treatment groups were collected and leukocyte population was counted through a blood cell counter. Body weights of control groups (n=10) and the treated group (n=10) were measured using a scale during the course of drug administration. […] In an additional toxicity study, effect of different doses of compounds 4 and 6 on the body weight of mice was examined. The compounds were i.p. injected in the abdomens at 3 different doses: 25, 50, and 100 mg/kg body weight to mice (3 mice per dosing group) for 6 consecutive days.
# [2] = Histological examination (H&E) of organs for toxicity; format: in vivo; conditions: mice, i.p. two doses daily for 6 days, FIGS. 8-11
# Excerpt: as §3
# To analyze toxicity of the Compounds 1, 2, 4, and 6 in vivo, each group (three mice) was i.p. injected with two doses of each Compound daily for 6 days, and then major mouse organs, such as liver, spleen, kidney, and heart were resected from the mice. The specimens will be fixed in 4% buffered formaldehyde, embedded in paraffin, sectioned and histologically analyzed by hematoxylin and eosin (H&E) staining.
# [3] = system: Hedgehog signaling pathway; assay: Quantitative real-time RT-PCR of Hh pathway genes in xenograft tumors; format: in vivo, mouse; conditions: Melanoma tumor (MelJuso) xenograft, pooled tumor from two mice, FIG. 4
# Method: as §1
# To examine whether Compounds 1, 2, 4, and 6 suppressed tumor growth through inhibition of the Hedgehog signaling pathway in vivo, expression of the key components and direct target genes of the Hh pathway (e.g. Gli1, Gli2, Gli3, HHIP and Cyclin D1) were analyzed by quantitative real-time RT-PCR using total RNA isolated from the xenograft tumors. GAPDH served as a control. This RT-PCR analysis was performed using a “pooled” tumor from two randomly selected mice of each group with reasonable size tumors. […] The results are shown in FIG. 4, where C is control and V is vehicle.
# mesothelioma MS-1 = assay: In vivo efficacy, Mouse Xenograft Model (mesothelioma MS-1); conditions: MS-1 xenograft, 50 mg/kg i.p. daily for 14 days, vs control group, FIG. 2
# Method: as §2, with “Data was presented as mean values (±S.D.).” left out
# Model (Mesothelioma MS-1). […] Tumor sizes was measured twice weekly until the completion of the experiments. […]
# [4] = Additional toxicity study: body weight at different doses; format: in vivo, mouse; conditions: mice, i.p. 25, 50 and 100 mg/kg for 6 consecutive days, FIG. 7
# Method: Each dosing group contained 3 mice. The body weight of mice was measured using a scale. Results are the means±SD (error bars).
# as §4
# [5] = system: human MM cell lines (mesothelioma cells); assay: Combination treatment, MTS cell proliferation assay, MM (mesothelioma) cell lines; format: cell-based; conditions: 72 hours, Combination Index
# Excerpt: (§5) Another assay for determining the number of viable cells in proliferation or cytotoxicity assays is the MTS assay, a colorimetric method. MTS assay reagents are commercially available (Promega Corp., Madison, Wis.). The reagent contains a tetrazolium compound [3-(4,5-dimethylthiazol-2-yl)-5-(3-carboxymethoxyphenyl)-2-(4-sulfophenyl)-2H-tetrazolium, inner salt; MTS] and an electron coupling reagent (phenazine ethosulfate; PES). PES has enhanced chemical stability, which allows it to be combined with MTS to form a stable solution. The MTS tetrazolium compound (Owen's reagent) is bioreduced by cells into a colored formazan product that is soluble in tissue culture medium. This conversion may be accomplished by NADPH or NADH produced by dehydrogenase enzymes in metabolically active cells. The quantity of formazan product as measured by the absorbance at 490 nm is directly proportional to the number of living cells in culture. Because the MTS formazan product is soluble in tissue culture medium, this assay requires fewer steps than procedures that use tetrazolium compounds such as MTT. The formazan product of MTT reduction is a crystalline precipitate that requires an additional step in the procedure to dissolve the crystals before recording absorbance readings at 570 nm.
# (§6) Combination treatments of the Compounds with several chemotherapies: erlotinib (Tarceva®), PI3K inhibitor LY294002, TGFβ inhibitor SB431542, and pemetrexed (Alimta®) were performed in human NSCLC and MM cell lines (FIGS. 12-17). In all experiments, NSCLC and MM cell lines were treated with different doses of each compound or combination for 72 hours, and MTS assays were performed to determine the cell proliferations. Combination Index (CI), calculated by CalcuSyn software (Biosoft, Cambridge, UK), was applied to describe the effect of the combination effects of two compounds, where CI<1 indicates Synergism, CI=1 indicates Additive effects, and CI>1 indicates Antagonism. Student's t-tests were applied for statistical analysis.
# human NSCLC cell lines = assay: Combination treatment, MTS cell proliferation assay, NSCLC cell lines; format: cell-based; conditions: lung cancer cells, 72 hours, Combination Index
# Excerpt: as §5, §6
Structure (SMILES),Expression of the key indicator of canonical Wnt activation in tumor (Wnt signaling pathway),Tumor weight after treatment (melanoma MelJuso),Tumor growth after treatment (melanoma MelJuso),Tumor weight after treatment (NSCLC A549),Changes of leukocyte population [1],Loss of body weight [1],"Toxicity in organs (liver, spleen, kidney, heart), H&E histology [2]","Hh signaling (expression of Gli1, Gli2, Gli3, HHIP, Cyclin D1) in tumor [3]",Tumor weight after treatment (mesothelioma MS-1),Loss of body weight [4],Combination effect with erlotinib (Tarceva) ([5]; FIG. 13),Combination effect with erlotinib (Tarceva) (human NSCLC cell lines; FIG. 12),Combination effect with PI3K inhibitor LY294002 ([5]; FIG. 15),Combination effect with pemetrexed (Alimta) ([5]; FIG. 17),Combination effect with PI3K inhibitor LY294002 (human NSCLC cell lines; FIG. 14),Combination effect with TGFβ inhibitor SB431542 (human NSCLC cell lines; FIG. 16)
"CC(C)(CO)CCCNC(=O)C1C(c2ccccc2)=NN(c2ccccc2)C1c1ccsc1 (stereo not drawn) [Compound 1, 1,3-diphenyl-5-thiophen-3-yl-4,5-dihydro-1H-pyrazole-4-carboxylic acid (5-hydroxy-4,4-dimethyl-pentyl)-amide]",significantly down-regulated,significantly decreased,dramatically suppressed,significantly decreased,No noticeable changes,No noticeable changes of leukocyte population or loss of the body weight,No noticeable toxicity,inhibited,significantly decreased,–,–,–,–,–,–,–
"O=C(NCc1ccc(O)cc1)C1C(c2ccccc2)=NN(c2ccccc2)C1c1ccccc1 (stereo not drawn) [Compound 2, 1,3,5-triphenyl-4,5-dihydro-1H-pyrazole-4-carboxylic acid 4-hydroxy-benzylamide]",significantly down-regulated,significantly decreased,dramatically suppressed,–,No noticeable changes,No noticeable changes of leukocyte population or loss of the body weight,No noticeable toxicity,inhibited,–,–,–,–,–,–,–,–
"CCCC1C(C(=O)NCCCC(C)(C)CO)C(c2ccc(F)cc2)=NN1c1ccccc1 (stereo not drawn) [Compound 4, 3-(4-fluoro-phenyl)-1-phenyl-5-propyl-4,5-dihydro-1H-pyrazole-4-carboxylic acid (5-hydroxy-4,4-dimethyl-pentyl)-amide]",significantly down-regulated,significantly decreased,dramatically suppressed,significantly decreased,No noticeable changes,No noticeable changes of leukocyte population or loss of the body weight,No noticeable toxicity,inhibited,significantly decreased,no noticeable loss,synergy,synergy,–,–,–,–
"CC(C)(CO)CCCNC(=O)C1C(c2ccc(F)cc2)=NN(c2ccccc2)C1c1cccc(F)c1 (stereo not drawn) [Compound 6, 3-(4-fluoro-phenyl)-5-(3-fluoro-phenyl)-1-phenyl-4,5-dihydro-1H-pyrazole-4-carboxylic acid (5-hydroxy-4,4-dimethyl-pentyl)-amide]",–,significantly decreased,dramatically suppressed,–,No noticeable changes,No noticeable changes of leukocyte population or loss of the body weight,No noticeable toxicity,inhibited,–,no noticeable loss,–,–,synergy,synergy,synergy,synergy
